According to article PMC8123576 (International Journal of Molecular Sciences, 2021):
Where two headings read alike, the source gives them in different places.

Key:
A. flavus = experiment: microbe, parasite or virus in culture; assay type: cell-based, Aspergillus flavus; settings: 10 to 100 µM; complexes compared with their ligand
[1] = Cytotoxicity assay (CellTiter 96 AQueous One) on Hs27; assay type: cell-based, human; settings: human, Hs27 normal skin cells, Hs27, 24 h, dose 0 = 100.00, read-out: Growth inhibition data
Protocol: (§1) The best antifungal and/or antiaflatoxigenic compounds were tested to determine their cytotoxic activity against human normal cell lines deriving from lung (HFL1, ATCC and CCL-153), skin (Hs27, ATCC, CRL1634) and colon (Crl1790, ATCC, CCD 841 CoN) and a cell line deriving from a hematological tumor (U937, ATCC and CRL-3253). These different cell lines have been chosen to simulate the different human exposition routes to pesticide. Cell culture conditions have been previously reported. Compound cytotoxicity was determined using CellTiter 96® AQueous One Solution Cell Proliferation Assay (Promega Corporation, Madison, WI, USA). The very detailed protocol was described by Bartoli et al.. In brief, cells were seeded in a 96-well plate at a density of 5000 cells/well and after 24 h cells were treated with different concentrations of the compounds (0.5–1–5–10–50–100 µM). After the treatment period (24 h), the CellTiter Reagent was added to each well (20 µL/well) and the plate incubated for 4 h at 37 °C. The plate was then read at 485 nm in a multiwell plate reader (TECAN SpectraFluor Plus, Männedorf, Switzerland).

Hs27 cells = experiment: as above; assay type: cell-based, human; settings: Hs27 cells, 24 h treatment
Protocol: as §1

[2] = Cytotoxicity assay (CellTiter 96 AQueous One) on HFL1; assay type: cell-based, human; settings: human, HFL1 normal lung cells, HFL1, 24 h, dose 0 = 100.00, read-out: Growth inhibition data
Protocol: as §1

HFL1 cells = experiment: as above; assay type: cell-based, human; settings: HFL1 cells, 24 h treatment
Protocol: as §1

[3] = Cytotoxicity assay (CellTiter 96 AQueous One) on U937; assay type: cell-based, human; settings: human, U937 cells (hematological tumor line), U937, 24 h, dose 0 = 100.00, read-out: Growth inhibition data
Protocol: as §1

U937 cells [4] = experiment: as above; assay type: cell-based, human; settings: U937 cells, 24 h treatment
Protocol: as §1

U937 cells [5] = experiment: Alkaline Comet Assay; assay type: cell-based, human; settings: 24 h treatment, 25-100 µM
Protocol: Our standard protocol for the Alkaline Comet Assay (pH > 13) was previously described in great detail. The DNA-damaging effects of non-cytotoxic molecules were evaluated on U937 cells using 25 μM as the lowest concentration and 100 µM as the highest for 24 h treatment. After exposure, cell viability was checked using the trypan blue exclusion method: a viability of at least 70% compared to the negative control (DMSO) was used as a cut-off for further evaluating the level of DNA damage. After electrophoresis (DNA unwinding: 20 min; electrophoresis: 20 min, 0.78 V cm^−1, 300 mA), nucleoids stained with ethidium bromide (75 µL, 10 µg/mL) were examined with a Leica DMLS fluorescence microscope (excitation filter BP 515–560 nm, barrier filter LP 580 nm), using the software Comet Assay IV (Perceptive Instruments Ltd., Suffolk, UK). Alkaline Comet assay results are expressed as tail intensity percentage that measures the percentage of total cellular DNA found in the tail of each comet.

A. cepa = A. cepa toxicity test (root length); assay type: in vivo, Allium cepa; settings: for Roots Length: NC 2.07 ± 0.61
Protocol: A. cepa toxicity test: Twelve equal-sized young onion bulbs were exposed for 96 h in the dark to different concentrations of compounds dissolved in DMSO, changing the sample solution every day. […] Root macroscopic parameters such as turgescence, consistency, change in color and root tip shape, were used as toxicity indexes.

A. cepa root cells = settings: for MN (micronuclei frequency): NC 1.10 ± 1.28; for CA (aberrated cells / total cells in mitosis): NC 1.2
Protocol: To detect micronuclei and chromosomal aberrations six equal-sized pre-germinated young bulbs per sample were exposed for 24 h to sample dilutions. The bulbs dedicated to the micronuclei test underwent an additional treatment in the saline solution for 44 h of recovery time to cover two rounds of mitosis so that damage induced in chromosomes during mitosis to be visible as micronuclei in interphase cells. Then all the roots were fixed in acetic acid and ethanol (1:3) for 24 h and lastly stored in 70% ethanol. The negative control was DMSO in Rank’s solution (the dose of DMSO corresponding to volume of samples) and positive control was maleic hydrazide (10^−2 M, 6 h exposure). […] All experiments were performed in duplicate.

S. typhimurium TA100 = settings: for TA100 + S9 revertants/plate: NC 106.5 ± 11.9; for TA100 revertants/plate: NC 95.8 ± 5.5
[6] = tested on: S. typhimurium TA98 and TA100 strains; experiment: Ames test, overall mutagenicity verdict in bacteria; settings: TA98 and TA100, -S9 and +S9

CC(=NNC(N)=S)c1cccs1 [2-actpTS, 2-acetylthiophenethiosemicarbazone]
impact on fungal growth (A. flavus): modest inhibitory activity
viability at 24 h, 0.5 µM ([1]; 0.5 µM): 99.9 ± 7.65%
viability at 24 h, 1 µM ([1]; 1 µM): 97 ± 4.78%
viability at 24 h, 5 µM ([1]; 5 µM): 100 ± 5.97%
viability at 24 h, 10 µM ([1]; 10 µM): 97.7 ± 3.73%
viability at 24 h, 50 µM ([1]; 50 µM): 100 ± 9.25%
viability at 24 h, 100 µM ([1]; 100 µM): 87.3 ± 8.07%
cytotoxic effect (Hs27 cells): did not show cytotoxic effect
viability at 24 h, 0.5 µM ([2]; 0.5 µM): 100 ± 11.1%
viability at 24 h, 1 µM ([2]; 1 µM): 100 ± 6.11%
viability at 24 h, 5 µM ([2]; 5 µM): 100 ± 5.74%
viability at 24 h, 10 µM ([2]; 10 µM): 100 ± 6.76%
viability at 24 h, 50 µM ([2]; 50 µM): 100 ± 4.53%
viability at 24 h, 100 µM ([2]; 100 µM): 92.5 ± 3.49%
50% inhibition of cell proliferation (HFL1 cells): did not induce 50% inhibition of cell proliferation
viability at 24 h, 0.5 µM ([3]; 0.5 µM): 100 ± 9.43%
viability at 24 h, 1 µM ([3]; 1 µM): 100 ± 4.23%
viability at 24 h, 5 µM ([3]; 5 µM): 100 ± 6.71%
viability at 24 h, 10 µM ([3]; 10 µM): 100 ± 7.06%
viability at 24 h, 50 µM ([3]; 50 µM): 100 ± 3.6%
viability at 24 h, 100 µM ([3]; 100 µM): 94.7 ± 8.15%
50% inhibition of cell proliferation (U937 cells [4]): did not induce 50% inhibition of cell proliferation
DNA damage in Alkaline Comet Assay (U937 cells [5]): did not induce significant DNA damage
Roots Length (A. cepa; 10 µM): 2.17 ± 0.53 cm
Roots Length (A. cepa; 25 µM): 1.65 ± 0.43 cm
Roots Length (A. cepa; 50 µM): 1.68 ± 0.39 cm
Roots Length (A. cepa; 100 µM): 1.07 ± 0.23 cm
EC50 (A. cepa; Allium cepa, read-out: EC50 (50% A. cepa root growth inhibition), 96 h exposure): ~100 µM
MN (micronuclei frequency) (A. cepa root cells; 10 µM): 1.20 ± 0.83%
CA (aberrated cells / total cells in mitosis) (A. cepa root cells; 10 µM): 2.7%
MN (micronuclei frequency) (A. cepa root cells; 25 µM): 1.40 ± 1.14%
CA (aberrated cells / total cells in mitosis) (A. cepa root cells; 25 µM): 4.7%
MN (micronuclei frequency) (A. cepa root cells; 50 µM): 2.00 ± 1.58%
CA (aberrated cells / total cells in mitosis) (A. cepa root cells; 50 µM): 6.3%
toxicity to roots in the micronuclei test (A. cepa root cells; 100 µM dose): highly toxic
CA (aberrated cells / total cells in mitosis) (A. cepa root cells; 100 µM): 6.0%
TA100 + S9 MR (mutagenicity ratio) (S. typhimurium TA100; +S9, 0.1 µM/plate): 0.9
TA100 + S9 revertants/plate (S. typhimurium TA100; +S9, 0.1 µM/plate): 98.0 ± 24.0 revertants/plate
TA100 + S9 MR (mutagenicity ratio) (S. typhimurium TA100; +S9, 1.0 µM/plate): 1.0
TA100 + S9 revertants/plate (S. typhimurium TA100; +S9, 1.0 µM/plate): 104.0 ± 15.6 revertants/plate
TA100 + S9 MR (mutagenicity ratio) (S. typhimurium TA100; +S9, 10.0 µM/plate): 1.0
TA100 + S9 revertants/plate (S. typhimurium TA100; +S9, 10.0 µM/plate): 107.5 ± 0.7 revertants/plate
TA100 + S9 MR (mutagenicity ratio) (S. typhimurium TA100; +S9, 50.0 µM/plate): 0.9
TA100 + S9 revertants/plate (S. typhimurium TA100; +S9, 50.0 µM/plate): 90.5 ± 13.4 revertants/plate
TA100 + S9 MR (mutagenicity ratio) (S. typhimurium TA100; +S9, 100.0 µM/plate): 0.8
TA100 + S9 revertants/plate (S. typhimurium TA100; +S9, 100.0 µM/plate): 88.0 ± 8.5 revertants/plate
TA100 MR (mutagenicity ratio) (S. typhimurium TA100; -S9, 0.1 µM/plate): 1.0
TA100 revertants/plate (S. typhimurium TA100; -S9, 0.1 µM/plate): 92.0 ± 14.1 revertants/plate
TA100 MR (mutagenicity ratio) (S. typhimurium TA100; -S9, 1.0 µM/plate): 1.1
TA100 revertants/plate (S. typhimurium TA100; -S9, 1.0 µM/plate): 101.5 ± 4.9 revertants/plate
TA100 MR (mutagenicity ratio) (S. typhimurium TA100; -S9, 10.0 µM/plate): 1.1
TA100 revertants/plate (S. typhimurium TA100; -S9, 10.0 µM/plate): 104.5 ± 9.2 revertants/plate
TA100 MR (mutagenicity ratio) (S. typhimurium TA100; -S9, 50.0 µM/plate): 0.9
TA100 revertants/plate (S. typhimurium TA100; -S9, 50.0 µM/plate): 87.5 ± 7.8 revertants/plate
TA100 MR (mutagenicity ratio) (S. typhimurium TA100; -S9, 100.0 µM/plate): 1.0
TA100 revertants/plate (S. typhimurium TA100; -S9, 100.0 µM/plate): 99.5 ± 0.7 revertants/plate
mutagenicity in bacteria [6]: no mutagenicity at any of the concentrations tested
